# Laboratory results: US11691961B2, “Molecule having pesticidal utility, and compositions, and processes, related thereto” (CORTEVA AGRISCIENCE LLC, priority 2018, dated 2023)
# Experiments:
# [1] = test system: Sweet potato Whitefly (Bemisia tabaci, BEMITA); experiment: Bioassay 2: Sweet potato Whitefly foliar spray on cotton seedlings; type: in vivo; settings: for Bemisia tabaci Mean LC50 PPM: cotton seedlings sprayed at crawler emergence, 2-3 instar nymphs counted 7-9 days after treatment, Abbott-corrected percent control, mean of replicates; for Bemisia tabaci % (percent increase in the Mean LC50 required): relative to F1: ((LC50 - LC50 of F1)/LC50 of F1)*100
# Description: (§1) F1, CE1, CE2, CE3, and CE4 (2 mg each) were each dissolved in 2 mL of acetone/methanol (1:1) solvent, forming stock solutions of 1000 ppm for each test molecule. The stock solutions were diluted 5× with 0.025% Tween® 20 in water to obtain test solutions at 200 ppm for each test molecule. Subsequent 4× dilutions, in water containing 0.025% Tween® 20 and 10% acetone/methanol (1:1), were used to generate the desired concentrations for dose responses. A minimum of 5 concentrations of each test molecule were used for each assay.
# (§2) [formula] where X=No. of live aphids on solvent check plants and Y=No. of live aphids on treated plants. Bioassay 2: Sweet potato Whitefly (Bemisia tabaci, BEMITA) (“SPW”).
# Test solutions of Formula One and the Comparative Examples, prepared as described above, were tested against SPW using the following procedure.
# Cotton seedlings grown in 3-inch pots, pruned so that only one true leaf remained, were used as test substrate. Adult B. tabaci were allowed to colonize these plants and lay eggs for 24 hours after which all adults were removed from the plants using compressed air. Plants were monitored for egg development and, when crawler emergence was underway (>25% emergence based on visual examination using a microscope), the plants were sprayed using the test solutions and methods described above for green peach aphids (GPA). Treated plants were held in a holding room at approximately 25° C. and ambient relative humidity (RH) prior to grading. Evaluation was conducted by counting the number of developed 2-3 instar nymphs per plant under a microscope 7-9 days after treatment. Percent control was measured using Abbott's correction formula (W. S. Abbott, “A Method of Computing the Effectiveness of an Insecticide” J. Econ. Entomol. 18 (1925), pp. 265-267) as follows:
# [formula] where X=No. of live nymphs on solvent check plants and Y=No. of live nymphs on treated plants. Analysis of Bioassays
# [2] = test system: Green Peach Aphid (Myzus persicae, MYZUPE); experiment: Bioassay 1: Green Peach Aphid foliar spray on cabbage seedlings; type: in vivo; settings: for Myzus persicae Mean LC50 PPM: infested cabbage seedlings sprayed until runoff, live aphids counted three days after treatment, Abbott-corrected percent control, mean of replicates; for Myzus persicae % (percent increase in the Mean LC50 required): relative to F1: ((LC50 - LC50 of F1)/LC50 of F1)*100
# Description: as §1
# Bioassay 1: Green Peach Aphid (Myzus persicae, MYZUPE) (“GPA”).
# Test solutions of Formula One and the Comparative Examples, prepared as described above, were tested against GPA using the following procedure.
# Cabbage seedlings grown in 3-inch pots, with 2-3 small (3-5 cm) true leaves, were used as test substrate. The seedlings were infested with 20-50 GPA (wingless adult and nymph stages) one day prior to chemical application. Four pots with individual seedlings were used for each treatment. A hand-held aspirator-type sprayer was used for spraying a solution to both sides of […] leaves until runoff. Reference plants (solvent check) were sprayed with the diluent only (0.025% Tween® 20 and 10% acetone/methanol (1:1) in water). Treated plants were held in a holding room for three days at approximately 25° C. and ambient relative humidity (RH) prior to grading. Evaluation was conducted by counting the number of live aphids per plant under a microscope three days after treatment. Percent control was measured using Abbott's correction formula (W. S. Abbott, “A Method of Computing the Effectiveness of an Insecticide” J. Econ. Entomol. 18 (1925), pp. 265-267) as follows:
# as §2
SMILES,Bemisia tabaci Mean LC50 PPM [1] [PPM],Bemisia tabaci % (percent increase in the Mean LC50 required) [1] [%],Myzus persicae Mean LC50 PPM [2] [PPM],Myzus persicae % (percent increase in the Mean LC50 required) [2] [%]
"CC(C)(C(=O)Nc1cn(-c2cccnc2)nc1Cl)S(C)(=O)=O [CE4, N-(3-chloro-1-(pyridin-3-yl)-1H-pyrazol-4-yl)-2-methyl-2-(methylsulfonyl)propanamide]",9.72,100,2.17,3000
"CC(C(=O)N(C)c1cn(-c2cccnc2)nc1Cl)S(C)(=O)=O (centres unmarked) [CE1, N-(3-chloro-1-(pyridin-3-yl)-1H-pyrazol-4-yl)-N-methyl-2-(methylsulfonyl)propanamide]",5.61,15,0.29,–
"CS(=O)(=O)CC(=O)Nc1cn(-c2cccnc2)nc1Cl [CE3, N-(3-chloro-1-(pyridin-3-yl)-1H-pyrazol-4-yl)-2-(methylsulfonyl)acetamide]",25.35,–,0.05,−29
"CC(C(=O)Nc1cn(-c2cccnc2)nc1Cl)S(C)(=O)=O (centres unmarked) [Molecule F1, N-(3-chloro-1-(pyridin-3-yl)-1H-pyrazol-4-yl)-2-(methylsulfonyl)propanamide]",4.87,–,0.07,–
"CN(C(=O)CS(C)(=O)=O)c1cn(-c2cccnc2)nc1Cl [CE2, N-(3-chloro-1-(pyridin-3-yl)-1H-pyrazol-4-yl)-N-methyl-2-(methylsulfonyl)acetamide]",21.01,–,0.52,–
